Laboratory results reported in ChEMBL document CHEMBL6087482, “Discovery of INCB159020, an Orally Bioavailable KRAS G12D Inhibitor” (J Med Chem, 2025).

Legend:
[1] = Intrinsic clearance in human liver microsomes at 1 uM measured upto 30 mins in presence of NADPH by LC/MS analysis; format: ADME, Microsome; details: read-out: CLH (converted)
[2] = Apparent permeability across apical to basolateral side in human Caco-2 cells at 50 uM incubated for 120 mins by LC-MS analysis; format: ADME, cell-based
GTPase KRas [3] = target: GTPase KRas (Homo sapiens, UniProt P01116); assay: Binding affinity to KRAS (unknown origin) assessed as dissociation constant by SPR analysis
Sequence of GTPase KRas (Homo sapiens, UniProt P01116) (P01116 whole entry): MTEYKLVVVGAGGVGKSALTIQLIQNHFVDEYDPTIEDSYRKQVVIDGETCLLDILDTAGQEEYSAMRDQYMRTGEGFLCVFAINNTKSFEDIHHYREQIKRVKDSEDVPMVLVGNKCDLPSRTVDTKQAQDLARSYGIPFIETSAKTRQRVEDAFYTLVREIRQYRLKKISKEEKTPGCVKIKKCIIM

[4] = Inhibition of ERK phosphorylation in KRAS G12D mutant dependent human HPAF-II cells incubated for 2 hrs with human whole blood containing compound by HTRF assay; format: cell-based
GTPase KRas [5] = target: GTPase KRas (Homo sapiens, UniProt P01116, G12D); assay: Inhibition of bodipy-loaded KRAS G12D mutant (unknown origin) assessed as GDP-GTP exchange preincubated for 4 hrs followed by GppNHp and SOS1 addition and measured after 2 hrs by fluorescence based plate reader analysis
[6] = Inhibition of ERK phosphorylation in KRAS G12D mutant dependent human HPAF-II cells incubated for 2 hrs by HTRF assay; format: cell-based
[7] = Efflux ratio of apparent permeability in human Caco-2 cells at 50 uM incubated for 120 mins by LC-MS analysis; format: ADME, cell-based
[8] = AUC in Sprague-Dawley rat at 3 mg/kg, po or 0.1 mg/kg, iv measured after 24 hrs by LC-MS/MS analysis; format: ADME, organism-based; details: in vivo
[9] = Oral bioavailability in Sprague-Dawley rat at 3 mg/kg measured after 24 hrs by LC-MS/MS analysis; format: ADME, organism-based; details: in vivo
[10] = Cmax in Sprague-Dawley rat at 3 mg/kg, po or 0.1 mg/kg, iv measured after 24 hrs by LC-MS/MS analysis; format: ADME, organism-based; details: in vivo
[11] = AUC in Non human primate at 2.0 mg/kg, po or 1 mg/kg, iv; format: ADME, organism-based; details: primates, in vivo
[12] = Cmax in Non human primate at 2.0 mg/kg, po or 1 mg/kg, iv; format: ADME, organism-based; details: primates, in vivo
[13] = Clearance in Sprague-Dawley rat assessed as hepatic blood flow at 3 mg/kg, po or 0.1 mg/kg, iv measured after 24 hrs by LC-MS/MS analysis; format: ADME, organism-based; details: in vivo
Primates [14] = assay: Clearance in Non human primate assessed as hepatic blood flow at 2.0 mg/kg, po or 1 mg/kg, iv; format: ADME, organism-based; details: in vivo
[15] = Half-life in Non human primate at 2.0 mg/kg, po or 1 mg/kg, iv; format: ADME, organism-based; details: primates, in vivo
[16] = Half-life in Sprague-Dawley rat at 3 mg/kg, po or 0.1 mg/kg, iv measured after 24 hrs by LC-MS/MS analysis; format: ADME, organism-based; details: in vivo
[17] = Oral bioavailability in Non human primate at 2.0 mg/kg; format: ADME, organism-based; details: primates, in vivo
[18] = In vivo inhibition of ERK phosphorylation in tumor of mouse xenografted with HPAC cells at 6 mg/kg, po measured after 4 hrs relative to control; format: functional
Primates [19] = assay: Clearance in Non human primate assessed as hepatic blood flow at 2.0 mg/kg, po or 0.5 mg/kg, iv; format: ADME, organism-based; details: in vivo
[20] = Cmax in Non human primate at 2.0 mg/kg, po or 0.5 mg/kg, iv; format: ADME, organism-based; details: primates, in vivo
[21] = Half-life in Sprague-Dawley rat at 3 mg/kg, po or 1 mg/kg, iv measured after 24 hrs by LC-MS/MS analysis; format: ADME, organism-based; details: in vivo
Primates [22] = assay: Clearance in Non human primate at 2.0 mg/kg, po or 0.5 mg/kg, iv; format: ADME, organism-based; details: in vivo
[23] = Half-life in Non human primate at 2.0 mg/kg, po or 0.5 mg/kg, iv; format: ADME, organism-based; details: primates, in vivo
Primates [24] = assay: AUC in Non human primate at 2.0 mg/kg, po or 0.5 mg/kg, iv; format: ADME, organism-based; details: in vivo
[25] = AUC in Sprague-Dawley rat at 3 mg/kg, po or 1 mg/kg, iv measured after 24 hrs by LC-MS/MS analysis; format: ADME, organism-based; details: in vivo
[26] = Cmax in Sprague-Dawley rat at 3 mg/kg, po or 1 mg/kg, iv measured after 24 hrs by LC-MS/MS analysis; format: ADME, organism-based; details: in vivo
[27] = Clearance in Sprague-Dawley rat assessed as hepatic blood flow at 3 mg/kg, po or 1 mg/kg, iv measured after 24 hrs by LC-MS/MS analysis; format: ADME, organism-based; details: in vivo

SMILES | hepatic clearance at 1 µM [1] [mL/min/kg] | Papp A→B at 2 h, 50 µM [2] [×10⁻⁶ cm/s] | Kd (GTPase KRas [3]) [nM] | IC50 [4] [nM] | IC50 (GTPase KRas [5]) [nM] | IC50 [6] [nM] | also measured
CCOc1nc2c(F)c(-c3cc(O)cc4ccccc34)c(CCC#N)cc2c2c1cc(CN1CCCCC1=O)n2[C@H]1[C@H]2CN[C@@H]1C2 | > 18.3 | 0.2 | 0.05 | 2350 | 2.6 | 21 | 
Cc1nc2c(F)c(-c3cc(O)cc4ccccc34)c(CCC#N)cc2c2c1cc(CN1CCCCC1=O)n2[C@H]1[C@H]2CN[C@@H]1C2 |  |  |  | 597 | 3.5 | 45 | 
N#CCCc1cc2c(nc(-c3ccncn3)c3cc(CN4CCOCC4=O)n([C@H]4[C@H]5CN[C@@H]4C5)c32)c(F)c1-c1cccc2ccc(F)cc12 | 11.7 | 1.1 |  | 626 | 3.8 | 17 | efflux ratio at 2 h, 50 µM [7]: 20
CC(=O)Nc1cccc(-n2c(=O)n(C3CC3)c(=O)c3c(Nc4ccc(I)cc4F)n(C)c(=O)c(C)c32)c1 [TRAMETINIB] |  |  |  |  |  |  | inhibition in vivo at 6 mg/kg [18]: 99%
Cc1cc2c(nc(N3CC(N(C)C)C3)c3nc(CCC(=O)N(C)C)n([C@H]4[C@H]5CN[C@@H]4C5)c32)c(F)c1-c1cc(O)cc2ccccc12 |  |  | 3 |  | 12 | 1300 | 
CC(Oc1nc2c(F)c(-c3cc(O)cc4ccccc34)c(CCC#N)cc2c2c1nc(CCC(=O)N(C)C)n2[C@H]1[C@H]2CN[C@@H]1C2)C1CCCN1C (single isomer, unassigned) |  |  |  |  | 15 | 1240 | 
CN(C)C(=O)CCc1nc2c(N3CC(N(C)C)C3)nc3c(F)c(-c4cc(O)cc5ccccc45)c(CCC#N)cc3c2n1[C@H]1[C@H]2CN[C@@H]1C2 |  |  | 0.02 | 977 | 2.9 | 127 | 
Cc1cc(-c2nc3c(F)c(-c4cccc5ccc(F)cc45)c(CCC#N)cc3c3c2cc([C@@H](C)N2CCOCC2=O)n3[C@H]2[C@H]3CN[C@@H]2C3)ccn1 | > 18.3 | 0.6 | 0.94 | 103 | 2.1 | 7.5 | 
CN(C)C1CN(c2nc(N3CCNCC3)c3cc(Cl)c(-c4cc(O)cc5ccccc45)c(F)c3n2)C1 |  |  |  |  | 8000 |  | 
CN(C)C1CN(c2nc3c(F)c(-c4cc(O)cc5ccccc45)c(Cl)cc3c3c2ncn3[C@H]2[C@H]3CN[C@@H]2C3)C1 |  |  |  |  | 671 |  | 
CN(C)C1CN(c2nc(N3CC4CCC(C3)N4)c3cc(Cl)c(-c4cc(O)cc5ccccc45)c(F)c3n2)C1 |  |  |  |  | 704 |  | 
N#CCCc1cc2c(nc(OC[C@@]34CCCN3C[C@H](F)C4)c3cc(CCC(=O)N4CCC4)n([C@@H]4[C@H]5CN[C@@H]4C5)c32)c(F)c1-c1cccc2ccc(F)cc12 |  |  | 0.24 | 1100 |  | 62 | 
Cc1cc(-c2nc3c(F)c(-c4cccc5ccc(F)cc45)c(CCC#N)cc3c3c2cc(CN2CCOCC2=O)n3[C@H]2[C@H]3CN[C@@H]2C3)ccn1 | 16.7 | 1.6 | 1.2 | 565 | 6.9 | 36 | QH (Primates [19]): 37%; bioavailability [9]: 11%; Cmax [20]: 2.5 nM; half-life [21]: 3.5 h; CL (Primates [22]): 16.2 mL/min/kg; half-life [23]: 8.4 h; bioavailability [17]: 0%; AUC (Primates [24]): Below_limit_of_detection; AUC at 24 h [25]: 0.108 µM·h; Cmax [26]: 41.5 nM; QH [27]: > 100%
CN(C)C(=O)CCc1cc2c(OC[C@@]34CCCN3C[C@H](F)C4)nc3c(F)c(-c4cc(O)cc5ccccc45)c(CCC#N)cc3c2n1[C@H]1[C@H]2CN[C@@H]1C2 | > 18.3 | < 0.1 | < 0.001 | 410 | 2.1 | 20 | 

More lines, in order of falling IC50 (GTPase KRas [5]), values ahead:

hepatic clearance at 1 µM [1] [mL/min/kg] | Papp A→B at 2 h, 50 µM [2] [×10⁻⁶ cm/s] | Kd (GTPase KRas [3]) [nM] | IC50 [4] [nM] | IC50 (GTPase KRas [5]) [nM] | IC50 [6] [nM] | SMILES | also measured
11.7 |  |  |  | 391 |  | CCOc1nc2c(F)c(-c3cccc4ccc(F)cc34)c(CCC#N)cc2c2c1cc(CCC(=O)N(C)C)n2[C@H]1[C@H]2CN[C@@H]1C2 | 
> 18.3 | 0.7 |  | 1030 | 6.1 | 39 | Cc1nc2c(F)c(-c3cccc4ccc(F)cc34)c(CCC#N)cc2c2c1cc(CN1CCCCC1=O)n2[C@H]1[C@H]2CN[C@@H]1C2 | 
> 18.3 | 0.2 | 0.26 | 492 | 3.8 | 28 | CCOc1nc2c(F)c(-c3cc(O)cc4ccccc34)c(CCC#N)cc2c2c1cc(CCC(=O)N(C)C)n2[C@H]1[C@H]2CN[C@@H]1C2 | 
> 18.3 | 1.7 | 0.84 | 519 | 3.7 | 10 | N#CCCc1cc2c(nc(-n3cncn3)c3cc(CN4CCOCC4=O)n([C@H]4[C@H]5CN[C@@H]4C5)c32)c(F)c1-c1cccc2ccc(F)cc12 | 
 |  | 0.1 | 2620 | 3.6 | 54 | CC(Oc1nc2c(F)c(-c3cc(O)cc4ccccc34)c(CCC#N)cc2c2c1cc(CCC(=O)N(C)C)n2[C@H]1[C@H]2CN[C@@H]1C2)C1CCCN1C (single isomer, unassigned) | 
 |  | 0.04 | 1130 | 3 | 104 | CN(C)C(=O)CCc1cc2c(N3CC(C)(N(C)C)C3)nc3c(F)c(-c4cc(O)cc5ccccc45)c(CCC#N)cc3c2n1[C@H]1[C@H]2CN[C@@H]1C2 | 
 |  | 0.031 | 1240 | 2.9 | 92 | CN(C)C(=O)CCc1nc2c(N3CC(C)(N(C)C)C3)nc3c(F)c(-c4cc(O)cc5ccccc45)c(CCC#N)cc3c2n1[C@H]1[C@H]2CN[C@@H]1C2 | 
> 18.3 | 1.4 | 1.5 | 55 | 2.8 | 6.8 | Cc1cnc(-c2nc3c(F)c(-c4cccc5ccc(F)cc45)c(CCC#N)cc3c3c2cc([C@@H](C)N2CCOCC2=O)n3[C@H]2[C@H]3CN[C@@H]2C3)cn1 | AUC at 24 h [8]: 0.085 µM·h; bioavailability [9]: 20%; Cmax [10]: 24 nM; AUC [11]: 0.068 µM·h; Cmax [12]: 7.2 nM; QH [13]: > 100%; QH (Primates [14]): 39%; half-life [15]: 4.9 h; half-life [16]: 2.5 h; bioavailability [17]: 2%
> 18.3 | 0.7 |  | 677 | 2.7 | 7.2 | Cc1nc2c(F)c(-c3cccc4ccc(F)cc34)c(CCC#N)cc2c2c1cc(CN1CCOCC1=O)n2[C@H]1[C@H]2CN[C@@H]1C2 | 
